Experiments:
[1] = biological target: T1, COX-1 (Homo sapiens, UniProt P23219); assay: COX-1 inhibition in human whole blood (A23187-stimulated TxB2 production); format: cell-based; details: TxB2 after A23187 50 μM 1 h, average where more than one assay, read-out: COX-1_Blood IC50 [μM] (Avg)
T1 construct: COX-1 is constitutively expressed in platelets; endogenous in cells; host or cells: heparinized human whole blood (platelets, A23187-stimulated)
Description: (§1) In vitro COX-1 and COX-2 inhibition is also determined in human whole blood where COX-1 is constitutively expressed in platelets and COX-2 expression is induced in mononuclear cells by treatment with lipopolysaccharide (LPS) (10 μg/mL). For this assay heparinized human blood is divided into two aliquots: one for measuring TxB2 production (a surrogate indicator of COX-1 activity) and a second for measuring PGE2 production (a surrogate for COX-2 activity). The blood samples are pretreated with test compounds for one hour before stimulation. Compounds are tested in a final concentration range from 0.1 nM to 300 μM using half log increases in concentrations. To measure inhibition of thromboxane B2 (TxB2) generation, A23187 (50 μM) is added, and the blood incubated for one hour. PGE2 production is measured after the addition of LPS (10 μg/mL) followed by overnight incubation. After incubation with A23187 or LPS the samples are centrifuged at 250×g for 10 minutes at 4° C. to collect serum. The amounts PGE2 and TxB2 present in the serum are measured using a chemiluminesence enzyme immunoassay from Assay Designs Inc. (Ann Arbor, Mich.). The levels of prostaglandin in each sample are normalized to the percent inhibition caused by each concentration of the test compound. The percent inhibition data for each donor is pooled and fitted to a 4-parameter logistic function using a regression.

[2] = biological target: T2, COX-2 (Homo sapiens, UniProt P35354); assay: COX-2 inhibition in human whole blood (LPS-induced PGE2 production); format: cell-based; details: PGE2 after LPS 10 μg/mL overnight, average where more than one assay, read-out: COX-2_Blood IC50 [μM] (Avg)
T2 construct: COX-2 expression is induced in mononuclear cells by treatment with lipopolysaccharide (LPS); endogenous in cells; host or cells: heparinized human whole blood (mononuclear cells, LPS-induced)
T2 sequence (P35354 18-604): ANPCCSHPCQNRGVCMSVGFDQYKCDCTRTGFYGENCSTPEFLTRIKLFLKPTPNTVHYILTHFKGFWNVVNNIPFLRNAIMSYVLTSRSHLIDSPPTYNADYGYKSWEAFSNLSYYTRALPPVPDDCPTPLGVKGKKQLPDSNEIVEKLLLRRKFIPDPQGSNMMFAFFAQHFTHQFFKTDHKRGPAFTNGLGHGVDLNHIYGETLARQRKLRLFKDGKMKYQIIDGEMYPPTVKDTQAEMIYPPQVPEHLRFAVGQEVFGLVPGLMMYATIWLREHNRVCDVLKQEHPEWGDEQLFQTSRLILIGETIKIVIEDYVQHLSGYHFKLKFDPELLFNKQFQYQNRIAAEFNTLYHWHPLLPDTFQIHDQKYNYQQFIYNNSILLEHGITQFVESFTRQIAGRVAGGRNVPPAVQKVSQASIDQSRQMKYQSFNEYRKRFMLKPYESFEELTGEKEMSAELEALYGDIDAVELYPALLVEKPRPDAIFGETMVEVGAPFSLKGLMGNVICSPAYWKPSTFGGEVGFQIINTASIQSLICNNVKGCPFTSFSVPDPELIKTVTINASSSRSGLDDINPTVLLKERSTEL
Description: as §1

T1 sequence (P23219 24-599): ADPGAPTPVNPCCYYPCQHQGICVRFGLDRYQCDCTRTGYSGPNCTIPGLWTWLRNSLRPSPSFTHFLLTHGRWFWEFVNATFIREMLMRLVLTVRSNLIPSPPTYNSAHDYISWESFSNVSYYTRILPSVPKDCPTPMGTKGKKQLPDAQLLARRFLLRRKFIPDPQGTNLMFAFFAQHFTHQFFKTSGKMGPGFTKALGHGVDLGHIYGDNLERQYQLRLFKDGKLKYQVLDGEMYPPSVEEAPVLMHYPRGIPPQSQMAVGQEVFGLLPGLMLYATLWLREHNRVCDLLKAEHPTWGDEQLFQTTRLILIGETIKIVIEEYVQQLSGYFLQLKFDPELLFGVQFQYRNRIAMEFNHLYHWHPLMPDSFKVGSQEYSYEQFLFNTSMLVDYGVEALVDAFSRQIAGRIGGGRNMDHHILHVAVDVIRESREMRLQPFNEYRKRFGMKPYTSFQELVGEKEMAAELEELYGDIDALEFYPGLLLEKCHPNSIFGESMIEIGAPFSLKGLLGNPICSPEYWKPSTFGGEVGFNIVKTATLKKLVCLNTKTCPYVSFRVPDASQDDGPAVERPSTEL

IC50 [1] [µM]	IC50 [2] [µM]	Structure (SMILES)
155	0.1	CCc1ccc(Nc2ccc(C)c(C(F)(F)F)c2F)c(CC(=O)O)c1 [Example 5a, 5-Ethyl-2-(2′-fluoro-4′-methyl-3′-trifluoromethylanilino)phenylacetic acid]
126	0.073	Cc1ccc(Nc2ccc(Cl)c(C)c2Cl)c(CC(=O)O)c1 [Example 5e, 5-Methyl-2-(2′,4′-dichloro-3′-methylanilino)phenylacetic acid]
129	0.295	Cc1ccc(Nc2ccc(Cl)c(C)c2F)c(CC(=O)O)c1 [Example 5i, 5-Methyl-2-(2′-fluoro-4′-chloro-3′-methylanilino)phenylacetic acid]
183	0.165	CCc1c(Cl)ccc(Nc2ccc(C)cc2CC(=O)O)c1F [Example 5k, 5-Methyl-2-(2′-fluoro-4′-chloro-3′-ethylanilino)phenylacetic acid]
127	0.17	CCc1ccc(Nc2ccc(Cl)c(C(C)C)c2F)c(CC(=O)O)c1 [Example 5m, 5-Ethyl-2-(2′-fluoro-4′-chloro-3′-isopropylanilino)phenylacetic acid]

— patent US8586782B2, “Phenylacetic acid derivatives” (Novartis AG, priority 2006, dated 2013)
